The results in this text go back to PMC9546217, “Exploring novel nitrofuranyl sulfonohydrazides as anti‐Leishmania and anti‐cancer agents: Synthesis, in vitro efficacy and hit identification” (Chemical Biology & Drug Design, 2022).

Like-named read-outs stand apart in the source and are kept apart here.

The test system of data set [1] is Vero cells. Put plainly: Basal cytotoxicity, resazurin assay. As to conditions: read-out: Cytotoxicity, IC50 ± SD, Vero; Vero cells. As for the experimental part:
(§1) The assay method is available in the Supinfo S1.
(§2) African green monkey kidney epithelial (Vero) cells (Cellonex, South Africa) were cultured and the basal cytotoxicity of the synthesized compounds with antileishmanial and/or anticancer activity was evaluated using the resazurin assay, as described in Mangwegape et al. ^4 Emetine served as the standard cytotoxic drug. Further use of reference drugs, controls, data analysis, calculations and IC50 determinations were identical to that of the antileishmanial assay.

Data set [2] relates to L. donovani strain 1S promastigotes. Briefly: Antipromastigote assay (resazurin). It is filed as cell-based. Particulars: L. donovani 1S, read-out: 1S IC50 ± SD, Promastigote. As for the experimental part:
(§3) The antipromastigote activity of synthesized compounds was evaluated as described previously by Mangwegape et al. ([2021]) using three strains of L. donovani (1S (MHOM/SD/62/1S) and 9515 (MHOM/IN/95/9515)) and L. major (IR‐173 [MHOM/IR/−173]). The assay method is available in the Supinfo S1.
(§4) The antipromastigote activity of synthesized compounds was evaluated using a modified, resazurin-based method of Kulshrestha et al. ^2 and Siqueira-Neto et al. ^3 and on three Leishmania strains. Leishmania donovani (strains 1S (MHOM/SD/62/1S) and 9515 (MHOM/IN/95/9515)) and L. major (strain IR-173 (MHOM/IR/-173)) promastigotes were cultured in M199 with Hank's salts and 0.68 mM L-glutamine (Sigma Aldrich) supplemented with 50 U/mL Penicillin/Streptomycin solution (Lonza), 4.2 mM sodium bicarbonate, 25 mM Hepes, 10% fetal bovine serum, 0.25% hemin, 0.1% biotin, and 10 mM adenine (Sigma Aldrich) and the pH adjusted to 7.3 – 7.4. The promastigotes were maintained at 25 °C.
(§5) Amphothericin B (10 μM) served as the standard drug and growth medium without parasites served as the blank. The plates were incubated for 48 hours at 25 °C in humidified atmosphere. After incubation, 50 μL of resazurin solution (0.01% in PBS) was added to each well and the plates were further incubated at 25 °C in the dark for 24 hours. Absorbance was measured at 570 nm and 600 nm using the Thermofisher Scientific GO Multiscan plate reader. Data analysis was performed for each biological replicate using SkanIt 4.0 Research Edition software. Background absorbance of resazurin (600 nm) was subtracted from the absorbance values of resorufin (570 nm). The mean absorbance calculated and the percentage growth inhibition and cell viability were determined by the following equations: […]
(§6) The IC50 and Z-score were determined for each compound’s three biological replicates using the cell viability % values and GraphPad Prism 5. The mean IC50 of the biological replicates with standard deviation (SD) served as the final IC50 of each compound.

Data set [3] has as its system L. donovani strain 9515 promastigotes. Put plainly: Antipromastigote assay (resazurin). It is filed as cell-based. Particulars: L. donovani 9515, read-out: 9515 IC50 ± SD, Promastigote. The procedure: as §3, §4, §5, §6
Data set [4] concerns L. major strain IR‐173 promastigotes. Briefly: Antipromastigote assay (resazurin). It is filed as cell-based. As to conditions: L. major IR‐173, read-out: Antileishmanial activity, IC50 ± SD, Promastigote. As for the experimental part:
as §3, §4, §5, §6

Data set [5] has as its system L. donovani strain 1S amastigotes. Briefly: Anti-amastigote assay (intramacrophage, THP-1 host, resazurin). Particulars: for IC50: L. donovani 1S, read-out: 1S IC50 ± SD, Amastigote. It is filed as cell-based. As for the experimental part:
(§7) The activities of synthesized compounds against the intramacrophage parasites of the three Leishmania strains were evaluated using a modified, resazurin‐based method (Jain et al., [2012]; Njanpa et al., [2021]). Suspension cultures of human acute monocytic leukemia (THP‐1) cells were maintained in RPMI‐1640 medium (Sigma Aldrich) supplemented with 10% FBS and 1% penicillin–streptomycin, at 37°C and 5% CO2 in a humidified atmosphere. Duplicate 96‐well plates (for respective anti‐amastigote and cytotoxicity assays) were seeded with 200 μl of a 2.5 × 10^5 cells/ml suspension treated with 25 ng/ml phorbol 12‐myristate 13‐acetate (PMA), followed by 48‐h incubation to promote differentiation into adherent macrophages.
(§8) For the anti‐amastigote assay, differentiated plates were carefully washed with PBS, followed by the addition of 200 μl of stationary phase promastigotes in RPMI 1640 medium with 2% FBS. An MOI of 30:1 was used for all three Leishmania strains. The parasite‐treated plates were incubated for 24 h at 32°C (L. major) or 37°C (L. donovani) and 5% CO2 to promote infection of the macrophages. […] Blanks were represented by growth medium without cells, as well as parasite‐free THP‐1 cells. The treated plates were incubated for 72 h.
(§9) After incubation, the plates were gently washed three times with PBS to remove any remaining extracellular parasites. The wells were then treated with 20 μl of 0.05% sodium dodecyl sulfate in PBS for 30 s to lyse the host macrophages. Lysis was terminated by adding 180 μl promastigote growth medium with 10% FBS. To initiate the resazurin assay, 10 μl of resazurin solution (0.025% in PBS) was added to all wells and the plates were incubated for 24 h at 32°C (L. major) or 37°C (L. donovani) and 5% CO2. Absorbance measurements, calculations, and IC50 determinations were performed as described for the antipromastigote assay (Supinfo S1).

Data set [6] has as its system L. donovani strain 9515 amastigotes. Described as above. It is filed as cell-based. As to conditions: for IC50: L. donovani 9515, read-out: 9515 IC50 ± SD, Amastigote. As for the experimental part:
as §7, §8, §9

The test system of data set [7] is L. major strain IR‐173 amastigotes. The description is as above. As to conditions: for IC50: read-out: Antileishmanial activity, IC50 ± SD, Amastigote. It is filed as cell-based. As for the experimental part:
as §7, §8, §9

In data set [8] the test system is A375 melanoma cells. Put plainly: Anticancer assay (resazurin). It is filed as cell-based, human. Particulars: n = 3; read-out: Anticancer activity, IC50 ± SD, A375. The procedure: (§10) The anticancer activities of synthesized compounds were evaluated using a resazurin‐based assay (Czekanska, [2011]). Accordingly, a screening method similar to that of the cytotoxicity assay was used to screen for anticancer activity, using human melanoma (A375), promyelocytic leukemia (Clone 15 HL‐60), lung cancer (A549), and breast cancer (MCF7) cells. The culture and assay methods are provided in the Supinfo S1.
(§11) The potential anticancer activities of synthesized compounds were screened using the resazurin assay. ^5 Breast adenocarcinoma (MCF7, ATCC® HTB-22™) and human melanoma (A375, ATCC® CRL-1619™) cells were cultured in Hyclone Dulbecco's modified Eagle’s medium with high glucose (Separations) supplemented with 10 % fetal bovine serum (FBS) (Thermofisher Scientific) and 1 % L-glutamine, penicillin-streptomycin and non-essential amino acids (Lonza). Human lung carcinoma (A549, ATCC®, CCL-185™) cells were cultured in Ham’s F12K medium supplemented with 10% FBS and 1% L-glutamine, penicillin-streptomycin and non-essential amino acids. Human promyelocytic leukemia (Clone 15 HL-60, ATCC® CRL-1946™) cells were cultured in RPMI-1640 medium (Sigma Aldrich) supplemented with 10% FBS and 1% penicillin-streptomycin. The cell lines were maintained in a humidified atmosphere at 37 °C and 5% CO2.
(§12) For the resazurin assay, 96 well plates were prepared with 100 μL of 100 000 cells/mL MCF7 cell suspension, 100 μL of 50 000 cells/mL A375 cell suspension, 100 μL of 25 000 cells/mL A549 cell suspension, or 50 μL of 50 000 cells/mL HL-60 cell suspension. The MCF7, A375 and A549 cell plates were incubated for 24 hours to allow adherence of the cells to the plate surface, after which the growth medium is replaced with 100 μL medium containing compounds. […] The cell lines were treated with: (i) parthenolide (Sigma Aldrich) (positive control); (ii) growth medium and solvent (negative control to compensate for possible solvent effects); (iii) growth medium and experimental compound solutions. […] Blanks contained growth medium without cells. The treated plates were incubated for 48 hours.
(§13) To initiate the resazurin assay, 50 μL of sterile-filtered resazurin sodium salt (Sigma Aldrich) solution (0.01 % in PBS) was added and the plates incubated for 2 hours (MCF7, A375 and A549 cells) or 24 hours (HL-60 cells). Absorbance was measured at 570 and 600 nm using the Thermofisher Scientific GO Multiscan plate reader. Data analysis was performed for each biological replicate using SkanIt 4.0 Research Edition software. Further data analysis, calculations and IC50 determinations were identical to that of the antileishmanial and cytotoxicity assays.
(§14) For the final IC50 of each compound, the mean IC50 of the biological replicates were calculated with standard deviation (SD).

Data set [9] deals with Clone 15 HL‐60 promyelocytic leukemia cells. Put plainly: Anticancer assay (resazurin). It is filed as cell-based, human. Particulars: n = 3; read-out: Anticancer activity, IC50 ± SD, Clone 15 HL‐60. The procedure:
as §10, §11, §12, §13, §14

The nature of data set [10]: in vitro. As to conditions: African green monkey. The procedure:
as §1, §2

Data set [11] can be described thus: Cytotoxicity on differentiated host THP-1 macrophages, resazurin assay. It is filed as cell-based, human. As to conditions: human, PMA-differentiated THP-1 macrophages, read-out: Cytotoxicity, IC50 ± SD, THP‐1. The procedure: Duplicate 96‐well plates (for respective anti‐amastigote and cytotoxicity assays) were seeded with 200 μl of a 2.5 × 10^5 cells/ml suspension treated with 25 ng/ml phorbol 12‐myristate 13‐acetate (PMA), followed by 48‐h incubation to promote differentiation into adherent macrophages.
Cytotoxicity of the compounds on the differentiated host THP-1 cells were also evaluated. As mentioned, duplicate plates of differentiated THP-1 cells were prepared during the anti-amastigote assay. These plates were incubated for 72 hours to differentiate, instead of replacing the growth medium with parasite-containing medium after 48 hours. […] Blanks were growth medium without cells. The treated plates were incubated for 72 hours, followed by the addition of 50 μL of resazurin solution (0.01% in PBS) to each well and 24-hour incubation.

In the case of `CC[C@H]1CN2CCc3cc(OC)c(OC)cc3[C@@H]2C[C@@H]1C[C@H]1NCCc2cc(OC)c(OC)cc21` [EM, emetine, reference compound], the IC50 in data set [1] is 80 ± 9 nM.
On to “(E)-4-Fluoro-N'-([5-nitrofuran-2-yl]methylene)-(1,1'-biphenyl)-4-sulfonohydrazide [2i]”, for which the 50% inhibitory concentration (IC50) in data set [1] is 29200 ± 5410 nM; in data set [2] it was 9380 ± 820 nM; in data set [3], over 10000 nM; in [4], over 10000 nM; in data set [5] it was over 10000 nM; in data set [6], over 10000 nM. The IC50 in [7] (L. major IR‐173), in data set [8] and in data set [9] was over 10000 nM throughout.
As for `C[C@@H]1[C@H](O)[C@@H](C)/C=C/C=C/C=C/C=C/C=C/C=C/C=C/[C@H](O[C@@H]2O[C@H](C)[C@@H](O)[C@H](N)[C@@H]2O)C[C@@H]2O[C@](O)(C[C@@H](O)C[C@@H](O)[C@H](O)CC[C@@H](O)C[C@@H](O)CC(=O)O[C@H]1C)C[C@H](O)[C@H]2C(=O)O` [AMB, Amphotericin B, reference compound], the concentration for half-maximal inhibition (IC50) in data set [10] stood at 57800 ± 3220 nM; in data set [2] (Leishmania donovani), 20 nM; in data set [4] (Leishmania major), 30 ± 6 nM; in [5] (Leishmania donovani, THP-1) it was 40 nM; in [6] (Leishmania donovani, THP-1) it was 50 nM; in data set [7] (Leishmania major, THP-1, L. major IR‐173), 30 nM.
With `NC(=O)N/N=C/c1ccc([N+](=O)[O-])o1` [NFZ, nitrofurazone, reference compound], the IC50 in [10] (Vero cells (kidney epithelial)) was over 100000 nM; in [2] (Leishmania donovani) it was 6540 ± 930 nM; in data set [3] (Leishmania donovani) it was 1850 ± 140 nM; in data set [4] (Leishmania major), 1850 ± 60 nM; in [5] (Leishmania donovani, THP-1), 2500 ± 400 nM. Further, in data set [11], the IC50 at 72 h was over 100000 nM. Moreover, the “Selectivity index SI4” value in data set [5] (L. donovani 1S: IC50 THP‐1/IC50 amastigote) is over 40. The “Selectivity index SI3” value in data set [5] (L. donovani 1S: IC50 Vero/IC50 amastigote) is over 40. Moreover, the “Specificity index SpI2” value in [5] (L. donovani 1S: IC50 promastigote/IC50 amastigote) was 2.62. Besides, the “Selectivity index SI6” value in data set [6] (L. donovani 9515: IC50 THP‐1/IC50 amastigote) was over 20. In addition, the “Selectivity index SI5” value in [6] (L. donovani 9515: IC50 Vero/IC50 amastigote) was over 20. Further, in data set [6] (L. donovani 9515: IC50 promastigote/IC50 amastigote), the “Specificity index SpI3” value is given as 0.37. Also, in data set [7] (L. major IR‐173: IC50 promastigote/IC50 amastigote), the “Specificity index SpI1” value amounted to 0.32.
Molecule `NNS(=O)(=O)c1ccc([N+](=O)[O-])cc1` [1b, 4-Nitrobenzenesulfonohydrazide] displayed a melting point of 149 to 152 °C.
